Results taken from patent US20240226049A1, “METHODS OF TREATMENT USING BEMPEDOIC ACID” (Esperion Therapeutics, Inc., priority 2023, published 2024).

Test system: statin-intolerant patients with or at high risk of CVD
Assay type: in vivo
Experimental: CLEAR OUTCOMES (described in Example 1) was a randomized double-blind trial comparing orally administered bempedoic acid 180 mg once daily to placebo in statin-intolerant patients with or at high risk of CVD and an LDL-C ≥2.59 mmol/L. This prespecified analysis reports the time to event analysis of bempedoic acid versus placebo on the primary endpoint (MACE-4; composite of CV death, nonfatal MI, nonfatal stroke, or coronary revascularization) and key secondary end-point (MACE-3; death from cardiovascular causes, nonfatal myocardial infarction, nonfatal stroke) by baseline glycaemia status (diabetes, prediabetes, and normoglycaemia), and impact on HbA1c at 1 and 3 years and on NOD for subjects without diabetes at baseline.

[1] = baseline diabetes, median 3.4 year follow up
[2] = baseline normoglycaemia, p<0.0001
[3] = baseline normoglycemia, median 3.4 year follow up
[4] = baseline pre-diabetes, median 3.4 year follow up
[5] = baseline pre-diabetes, p<0.0001
[6] = diabetes, primary prevention CVD risk group
[7] = diabetes, secondary prevention CVD risk group
[8] = vs placebo, baseline normoglycemia
[9] = vs placebo, baseline pre-diabetes
[10] = vs placebo, diabetes, primary prevention
[11] = vs placebo, diabetes, secondary prevention
[12] = vs placebo, history of one or more cardiovascular events
[13] = vs placebo, no prior history of cardiovascular events

With `CC(C)(CCCCCC(O)CCCCCC(C)(C)C(=O)O)C(=O)O` [Bempedoic Acid, Bempedoic acid] the “Time to First Adjudicated MACE-3, Diabetes, % of patients” value [1] was 8.9%, the “Time to First Adjudicated MACE-3, Diabetes, patients with event/patients” value [1] was 279/3144 and the “Time to First Adjudicated MACE-4, Diabetes, % of patients” value [1] was 11.9%. For the same molecule, the “Time to First Adjudicated MACE-4, Diabetes, patients with event/patients” value [1] was 374/3144, the “LDL-C reduction compared to placebo at month 6, patients with diabetes” value (baseline diabetes, p<0.0001) was 21.2% and the “LDL-C reduction compared to placebo at month 6 in absolute terms, patients with diabetes” value (baseline diabetes, p<0.0001) was 0.73 mmol/L. For the same molecule, the “LDL-C reduction compared to placebo at month 6, patients with normoglycaemia” value [2] was 22.0%, the “LDL-C reduction compared to placebo at month 6 in absolute terms, patients with normoglycaemia” value [2] was 0.81 mmol/L and the “Time to First Adjudicated MACE-3, Normoglycemia, % of patients” value [3] was 7.2%. For the same molecule, the “Time to First Adjudicated MACE-3, Normoglycemia, patients with event/patients” value [3] was 67/937, the “Time to First Adjudicated MACE-4, Normoglycemia, % of patients” value [3] was 10.1% and the “Time to First Adjudicated MACE-4, Normoglycemia, patients with event/patients” value [3] was 95/937. For the same molecule, the “Time to First Adjudicated MACE-3, Pre-Diabetes, % of patients” value [4] was 7.9%, the “Time to First Adjudicated MACE-3, Pre-Diabetes, patients with event/patients” value [4] was 229/2911 and the “Time to First Adjudicated MACE-4, Pre-Diabetes, % of patients” value [4] was 12.0%. The “Time to First Adjudicated MACE-4, Pre-Diabetes, patients with event/patients” value [4] was 350/2911, the “LDL-C reduction compared to placebo at month 6, patients with pre-diabetes” value [5] was 20.7% and the “LDL-C reduction compared to placebo at month 6 in absolute terms, patients with pre-diabetes” value [5] was 0.76 mmol/L. For the same molecule, the “Time to First Adjudicated MACE-3, Diabetes, Primary Prevention, % of patients” value [6] was 4.9%, the “Time to First Adjudicated MACE-3, Diabetes, Primary Prevention, patients with event/patients” value [6] was 67/1369 and the “Time to First Adjudicated MACE-4, Diabetes, Primary Prevention, % of patients” value [6] was 6.4%. The “Time to First Adjudicated MACE-4, Diabetes, Primary Prevention, patients with event/patients” value [6] was 87/1369, the “Time to First Adjudicated MACE-3, Diabetes, Secondary Prevention, % of patients” value [7] was 11.9% and the “Time to First Adjudicated MACE-3, Diabetes, Secondary Prevention, patients with event/patients” value [7] was 212/1775. The “Time to First Adjudicated MACE-4, Diabetes, Secondary Prevention, % of patients” value [7] was 16.2%, the “Time to First Adjudicated MACE-4, Diabetes, Secondary Prevention, patients with event/patients” value [7] was 287/1775 and the “reduction in risk of MACE (CV death, non-fatal MI or non-fatal stroke), adult with diabetes” value (vs placebo, 180 mg oral daily) was “about 20%”. For the same molecule, the “reduction in risk of MACE (CV death, non-fatal MI, non-fatal stroke or coronary revascularization), adult with diabetes” value (vs placebo, 180 mg oral daily) was “about 17%”, the “Time to First Adjudicated MACE-3, Diabetes, HR” value (vs placebo, baseline diabetes) was 0.80 and the “Time to First Adjudicated MACE-4, Diabetes, HR” value (vs placebo, baseline diabetes) was 0.83. For the same molecule, the “Time to First Adjudicated MACE-3, Normoglycemia, HR” value [8] was 0.96, the “Time to First Adjudicated MACE-4, Normoglycemia, HR” value [8] was 0.84 and the “Time to First Adjudicated MACE-3, Pre-Diabetes, HR” value [9] was 0.92. The “Time to First Adjudicated MACE-4, Pre-Diabetes, HR” value [9] was 0.94, the “Time to First Adjudicated MACE-3, Diabetes, Primary Prevention, HR” value [10] was 0.65 and the “Time to First Adjudicated MACE-4, Diabetes, Primary Prevention, HR” value [10] was 0.70. For the same molecule, the “Time to First Adjudicated MACE-3, Diabetes, Secondary Prevention, HR” value [11] was 0.86, the “Time to First Adjudicated MACE-4, Diabetes, Secondary Prevention, HR” value [11] was 0.87 and the “reduction in risk of MACE (CV death, non-fatal MI or non-fatal stroke), adult with diabetes at risk for a secondary MACE” value [12] was “at least 14%”. For the same molecule, the “reduction in risk of MACE (CV death, non-fatal MI, non-fatal stroke or coronary revascularization), adult with diabetes at risk for a secondary MACE” value [12] was “about 13%”, the “reduction in risk of MACE (CV death, non-fatal MI or non-fatal stroke), adult with diabetes at risk for a primary MACE” value [13] was “about 35%” and the “reduction in risk of MACE (CV death, non-fatal MI, non-fatal stroke or coronary revascularization), adult with diabetes at risk for a primary MACE” value [13] was “about 30%”.
